Test results as given in patent EP0195316A1, “Quinolonecarboxylic acid derivatives” (KYORIN PHARMACEUTICAL CO., LTD., priority 1985, dated 1986).
≈ marks a conversion by molar mass, not a printed value. Read-outs that look alike come from different tables or passages of the source. Marks after values point to notes of the source that are not given here.

Key:
[1] = tested on: Proteus vulgaris IFO 3167; experiment: MIC, in vitro antibacterial activity (standard strains); type: cell-based; conditions: Proteus vulgaris, IFO3167
[2] = tested on: Klebsiella pneumoniae KY(GN)6445; experiment: as above; type: cell-based
[3] = tested on: B. thetaiotaomicron (0661); experiment: as above; type: cell-based; conditions: Bacteroides thetaiotaomicron; B. thetaiotaomicron (0661), 10^6 cells/ml, Gram -; read-out: MIC
[4] = Repeated oral administration to dog (reference compound); type: in vivo
[5] = tested on: E. coli ML 4707; experiment: In vivo antibacterial activity against systemic infections in mice; conditions: Escherichia coli, ML4707; E. coli ML 4707 systemic infection (i.p.), male ICR mice, oral administration an hour after infection; read-out: ED50
Experimental: (§1) The infections were produced by intraperitoneal injection of suspension of the bacterial cells. The compounds were administered orally at an hour after the injection. Five male ICR mice were used for each dosage. […] The efficacy of the present compound are shown in Table 4 in comparison with those of the reference compounds.

[6] = tested on: P. aeruginosa IID 1210; experiment: as above; conditions: Pseudomonas aeruginosa, IID1210; P. aeruginosa IID 1210 systemic infection (i.p.), male ICR mice, oral administration an hour after infection; read-out: ED50
Experimental: as §1

[7] = tested on: S. aureus Smith; experiment: as above; conditions: Staphylococcus aureus; S. aureus Smith systemic infection (i.p.), male ICR mice, oral administration an hour after infection; read-out: ED50
Experimental: as §1

[8] = tested on: S. pneumoniae S-4288; experiment: as above; conditions: Streptococcus pneumoniae, S4288; S. pneumoniae S-4288 systemic infection (i.p.), male ICR mice, oral administration an hour after infection; read-out: ED50
Experimental: as §1

[9] = Subacute toxicity in dog; type: in vivo; conditions: beagle dogs, oral, 20 mg/kg/day for 8 days then 50 mg/kg/day for 7 days
Experimental: Subacute toxicity study of the present compound was carried out in beagledogs (10 weeks old, n=3). To animals 20 mg/kg/day of the present compound for 8 days and after that 50 mg/kg/day for 7 days was administered orally.

[10] = Absorption and metabolism in dogs (HPLC); type: in vivo, beagle dogs
Experimental: A 2 mg dose of the present compound was administered to beagle dogs orally or intravenously, and the serum levels were measured by HPLC (High-performance liquid chromatography).

[11] = tested on: nalidixic acid-resistant Salmonella typhimurium TA98 strain (nal^r); experiment: Mutagenicity, reverse mutation assay
Description: As for antibacterial agents, assessment of mutagenicity using bacteria is somewhat difficult because of their activity on the test bacteria.

[12] = in vivo; conditions: mouse, iv
[13] = in vivo; conditions: rat, po, 10 mg/kg

Work on `CC1CN(c2c(F)cc3c(=O)c(C(=O)O)cn(C4CC4)c3c2Cl)CCN1` (stereo not drawn) [Ref.2, 8-Chloro-1-cyclopropyl-6-fluoro-1,4-dihydro-7-(3-methyl-1-piperazinyl)-4-oxo-3-quinolinecarboxylic acid] yielded an MIC [1] of 0.0125 µg/mL (≈ 0.0329 µM), an MIC ([2]; Klebsiella pneumoniae KY(GN)6445, 10^6 cells/ml, Gram -, read-out: MIC) of 0.025 µg/mL (≈ 0.0658 µM) and an MIC [3] of 0.78 µg/mL (≈ 2.05 µM). The “GPT and TTT (hepatoxicity)” value [4] was “marked elevation of GPT and decrease of TTT” and the “side effect on central nervous system” value [4] was “strong vomiting and clonic convulsion”.

In the case of `NC1CCN(c2c(F)cc3c(=O)c(C(=O)O)cn(C4CC4)c3c2Cl)C1` (stereo not drawn) [Example 25, 7-(3-Amino-l-pyrrolidinyl)-8-chloro-l-cyclopropyl-6-fluoro-1,4-dihydro-4-oxo-3-quinolinecarboxylic acid], the MIC [1] is reported as 0.0125 µg/mL (≈ 0.0342 µM), the MIC ([2]; Klebsiella pneumoniae) is reported as 0.0125 µg/mL (≈ 0.0342 µM) and the MIC [3] is reported as 0.2 µg/mL (≈ 0.547 µM). For the same compound, the ED50 [5] was 0.9 mg/kg, the ED50 [6] was 2.9 mg/kg and the ED50 [7] was 2 mg/kg. For the same compound, the ED50 [8] was 13 mg/kg, the “changes in body weight and general conditions” value [9] was “No remarkable changes in body weight and general conditions” and the “hematological examination and serum biochemical analysis” value [9] was “no abnormality with regard to hematological examination and serum biochemical analysis”. The urinary metabolites ([10]; animals (dogs section)) was “may be hardly metabolized”, the “Serum levels by oral route versus intravenous route” value ([10]; beagle dogs, 2 mg dose, HPLC) was “almost equal to those by intravenous route” and the “His^+ revertants per plate” value ([11]; 0.005 µg/plate, S9-mix +) was 60. For the same compound, the “His^+ revertants per plate” value ([11]; 0.005 µg/plate, S9-mix -) was 28, the “His^+ revertants per plate” value ([11]; 0.01 µg/plate, S9-mix +) was 48 and the “His^+ revertants per plate” value ([11]; 0.01 µg/plate, S9-mix -) was 29. For the same compound, the “His^+ revertants per plate” value ([11]; 0.05 µg/plate, S9-mix +) was 39*, the “His^+ revertants per plate” value ([11]; 0.05 µg/plate, S9-mix -) was 26 and the “His^+ revertants per plate” value ([11]; 0.1 µg/plate, S9-mix +) was 6*. For the same compound, the “His^+ revertants per plate” value ([11]; 0.1 µg/plate, S9-mix -) was 16*, the “His^+ revertants per plate” value ([11]; 0.5 µg/plate, S9-mix +) was 0* and the “His^+ revertants per plate” value ([11]; 0.5 µg/plate, S9-mix -) was 0*. The “His revertant colonies compared with the solvent control” value ([11]; within measurable concentration, with and without the drug metabolic activation) was “no increment of His revertant colonies”, the LD50 [12] was 242 mg/kg and the dose excreted at 24 h ([13]; Excretion rate (% of dose) Bile) was 13.4%. It also gave a dose excreted at 24 h ([13]; Excretion rate (% of dose) Urine) of 21.7%.
